Measured values taken from article PMC3242765, “Inhibitors of Alphavirus Entry and Replication Identified with a Stable Chikungunya Replicon Cell Line and Virus-Based Assays” (PLoS ONE, 2011).
Structures can show the parent of a compound that is named as a salt.

What was measured:
[1] = test system: CHIKV replicon; test: microbe, parasite or virus in culture; assay type: cell-based, Chikungunya virus (CHIKV)
[2] = test system: SFV-Rluc

## O=C(O)c1cc(O)c(O)c(O)c1 [Gallic acid]
[1]
  CHIKV replicon % left: 88.9%
[2]
  SFV replication % left (surviving fraction, remaining percentage of SFV replication): 148.8%

## O=c1c(-c2ccc(O)cc2)coc2cc(O)cc(O)c12 [Genistein]
[1]
  CHIKV replicon % left: 62.1%
[2]
  SFV replication % left (surviving fraction, remaining percentage of SFV replication): 45.6%

## C[C@]12CC[C@H](O)C[C@H]1CC[C@@H]1[C@@H]2CC[C@]2(C)[C@@H](C3=CC(=O)OC3)[C@@H](O)C[C@]12O [Gitoxigenin]
[1]
  CHIKV replicon % left: 81.4%
[2]
  SFV replication % left (surviving fraction, remaining percentage of SFV replication): 102.7%

## O=c1c(O)c(-c2ccc(O)c(O)c2)oc2c(O[C@@H]3O[C@H](CO)[C@@H](O)[C@H](O)[C@H]3O)c(O)cc(O)c12 [Gossypin]
[1]
  CHIKV replicon % left: 104.3%
[2]
  SFV replication % left (surviving fraction, remaining percentage of SFV replication): 105.8%

## COc1ccccc1OCC(O)CO (centres unmarked) [Guaifenesin]
[1]
  CHIKV replicon % left: 82.7%
[2]
  SFV replication % left (surviving fraction, remaining percentage of SFV replication): 124.5%

## O=C(OC[C@H]1OC(O)[C@@](O)(COC(=O)c2cc(O)c(O)c(O)c2)[C@@H]1O)c1cc(O)c(O)c(O)c1 (some centres unmarked) [Hamamelitannin]
[1]
  CHIKV replicon % left: 40.1%
[2]
  SFV replication % left (surviving fraction, remaining percentage of SFV replication): 14.7%

## COc1ccc2ccc(=O)oc2c1 [Herniarin]
[1]
  CHIKV replicon % left: 102.2%
[2]
  SFV replication % left (surviving fraction, remaining percentage of SFV replication): 53.2%

## COc1ccc([C@@H]2CC(=O)c3c(O)cc(O[C@@H]4O[C@H](CO[C@@H]5O[C@@H](C)[C@H](O)[C@@H](O)[C@H]5O)[C@@H](O)[C@H](O)[C@H]4O)cc3O2)cc1O [Hesperidin]
[1]
  CHIKV replicon % left: 102.2%
[2]
  SFV replication % left (surviving fraction, remaining percentage of SFV replication): 77.7%

## CN1C(=O)NC(=O)C(C)(C2=CCCCC2)C1=O (centres unmarked) [Hexobarbital]
[1]
  CHIKV replicon % left: 98.2%
[2]
  SFV replication % left (surviving fraction, remaining percentage of SFV replication): 121.3%

## Oc1ccc(C(O)CNCCCCCCNCC(O)c2ccc(O)c(O)c2)cc1O (centres unmarked) [Hexoprenaline]
[1]
  CHIKV replicon % left: 79.1%
[2]
  SFV replication % left (surviving fraction, remaining percentage of SFV replication): 124.9%

## NCCCS(=O)(=O)O [Homotaurine]
[1]
  CHIKV replicon % left: 89.2%
[2]
  SFV replication % left (surviving fraction, remaining percentage of SFV replication): 118.7%

## NS(=O)(=O)c1cc2c(cc1Cl)NCNS2(=O)=O [Hydrochlorothiazide]
[1]
  CHIKV replicon % left: 70.2%
[2]
  SFV replication % left (surviving fraction, remaining percentage of SFV replication): 121.2%

## CC(=O)OCC(=O)[C@@]1(O)CC[C@H]2[C@@H]3CCC4=CC(=O)CC[C@]4(C)[C@H]3[C@@H](O)C[C@@]21C [Hydrocortisone acetate]
[1]
  CHIKV replicon % left: 72.1%
[2]
  SFV replication % left (surviving fraction, remaining percentage of SFV replication): 116.8%

## Oc1ccc(O)cc1 [Hydroquinone]
[1]
  CHIKV replicon % left: 72.9%
[2]
  SFV replication % left (surviving fraction, remaining percentage of SFV replication): 16.9%

## CCN(CCO)CCCC(C)Nc1ccnc2cc(Cl)ccc12 (centres unmarked) [Hydroxychloroquine sulfate]
[1]
  CHIKV replicon % left: 100.1%
[2]
  SFV replication % left (surviving fraction, remaining percentage of SFV replication): 128.9%

## OCCOCCN1CCN(C(c2ccccc2)c2ccc(Cl)cc2)CC1 (centres unmarked) [Hydroxyzine hydrochloride]
[1]
  CHIKV replicon % left: 100.5%
[2]
  SFV replication % left (surviving fraction, remaining percentage of SFV replication): 98.3%

## CC(C)(C)NC[C@H](O)COc1cccc2c1CCCC2=O [I-Bunolol]
[1]
  CHIKV replicon % left: 105.4%
[2]
  SFV replication % left (surviving fraction, remaining percentage of SFV replication): 59.6%

## CC(C)Cc1ccc(CC(=O)O)cc1 [Ibufenac]
[1]
  CHIKV replicon % left: 78.9%
[2]
  SFV replication % left (surviving fraction, remaining percentage of SFV replication): 102.2%

## CC(C)Cc1ccc(C(C)C(=O)O)cc1 (centres unmarked) [Ibuprofen]
[1]
  CHIKV replicon % left: 100.5%
[2]
  SFV replication % left (surviving fraction, remaining percentage of SFV replication): 92.8%

## O[C@H]1[C@H](O)[C@@H](O)[C@H](O)[C@@H](O)[C@H]1O [Inositol]
[1]
  CHIKV replicon % left: 89.5%
[2]
  SFV replication % left (surviving fraction, remaining percentage of SFV replication): 106.0%

## CCC(NC(C)C)C(O)c1ccc(O)c(O)c1 (centres unmarked) [Isoetharine]
[1]
  CHIKV replicon % left: 100.4%
[2]
  SFV replication % left (surviving fraction, remaining percentage of SFV replication): 90.7%

## CC(C)OC(=O)c1cc(O)c(O)c(O)c1 [Isopropyl gallate]
[1]
  CHIKV replicon % left: 79.3%
[2]
  SFV replication % left (surviving fraction, remaining percentage of SFV replication): 124.0%

## COc1cc(-c2oc3cc(O)cc(O)c3c(=O)c2O)ccc1O [Isorhamnetin]
[1]
  CHIKV replicon % left: 19.3%
[2]
  SFV replication % left (surviving fraction, remaining percentage of SFV replication): 28.9%

## COc1cc2oc(=O)ccc2cc1O [Isoscopoletin]
[1]
  CHIKV replicon % left: 99.4%
[2]
  SFV replication % left (surviving fraction, remaining percentage of SFV replication): 120.6%

## O=c1c(O)c(-c2ccc(O)cc2)oc2cc(O)cc(O)c12 [Kaempferol]
[1]
  CHIKV replicon % left: 11.5%
[2]
  SFV replication % left (surviving fraction, remaining percentage of SFV replication): 2.9%

## COc1c2occc2c(OC)c2c(=O)cc(C)oc12 [Khellin]
[1]
  CHIKV replicon % left: 95.4%
[2]
  SFV replication % left (surviving fraction, remaining percentage of SFV replication): 120.6%

## C[C@](N)(Cc1ccc(O)c(O)c1)C(=O)O [L-Methyldopa]
[1]
  CHIKV replicon % left: 70.2%
[2]
  SFV replication % left (surviving fraction, remaining percentage of SFV replication): 99.1%

## CNC[C@H](O)c1cccc(O)c1.Cl [L-Phenylephrine hydrochloride]
[1]
  CHIKV replicon % left: 104.1%
[2]
  SFV replication % left (surviving fraction, remaining percentage of SFV replication): 85.1%

## O=C1O[C@H]([C@@H](O)CO)C(O)=C1O [L-ascorbic acid]
[1]
  CHIKV replicon % left: 106.1%
[2]
  SFV replication % left (surviving fraction, remaining percentage of SFV replication): 81.4%

## CC(CCc1ccccc1)NCC(O)c1ccc(O)c(C(N)=O)c1 (centres unmarked) [Labetalol hydrochloride]
[1]
  CHIKV replicon % left: 100.1%
[2]
  SFV replication % left (surviving fraction, remaining percentage of SFV replication): 72.5%

## CCCCCCCCCCCCOC(=O)c1cc(O)c(O)c(O)c1 [Lauryl gallate]
[1]
  CHIKV replicon % left: 6.1%
[2]
  SFV replication % left (surviving fraction, remaining percentage of SFV replication): 12.3%

## Oc1cc(O)c2c(c1)OC(c1ccc(O)c(O)c1)C(O)C2O (centres unmarked) [Leucocyanidin]
[1]
  CHIKV replicon % left: 84.1%
[2]
  SFV replication % left (surviving fraction, remaining percentage of SFV replication): 136.3%

## O=C1Nc2ccc(Cl)cc2C(c2ccccc2Cl)=NC1O (centres unmarked) [Lorazepam]
[1]
  CHIKV replicon % left: 104.9%
[2]
  SFV replication % left (surviving fraction, remaining percentage of SFV replication): 98.2%

## O=c1cc(-c2ccc(O)c(O)c2)oc2cc(O[C@@H]3O[C@H](CO)[C@@H](O)[C@H](O)[C@H]3O)cc(O)c12 [Luteolin-7-glucoside]
[1]
  CHIKV replicon % left: 54.4%
[2]
  SFV replication % left (surviving fraction, remaining percentage of SFV replication): 17.8%

## O=c1cc(-c2ccc(O)c(O)c2)oc2cc(O)cc(O)c12 [Luteolin]
[1]
  CHIKV replicon % left: 95.0%
[2]
  SFV replication % left (surviving fraction, remaining percentage of SFV replication): 71.3%

## COc1cc(-c2[o+]c3cc(O)cc(O[C@@H]4O[C@H](CO)[C@@H](O)[C@H](O)[C@H]4O)c3cc2O[C@@H]2O[C@H](CO)[C@@H](O)[C@H](O)[C@H]2O)cc(OC)c1O.[Cl-] [Malvin chloride]
[1]
  CHIKV replicon % left: 72.3%
[2]
  SFV replication % left (surviving fraction, remaining percentage of SFV replication): 15.4%

## CN1CCN=C(c2ccccc2)c2cc(Cl)ccc21 [Medazepam]
[1]
  CHIKV replicon % left: 101.7%
[2]
  SFV replication % left (surviving fraction, remaining percentage of SFV replication): 87.5%

## Cc1cccc(Nc2ccccc2C(=O)O)c1C [Mefenamic acid]
[1]
  CHIKV replicon % left: 99.4%
[2]
  SFV replication % left (surviving fraction, remaining percentage of SFV replication): 103.5%

## CC1=CC(=O)c2ccccc2C1=O [Menadione [2-Methyl-1,4-naphtoquinone]]
[1]
  CHIKV replicon % left: 31.1%
[2]
  SFV replication % left (surviving fraction, remaining percentage of SFV replication): 28.3%

## CNC(C)(C)Cc1ccccc1 [Mephentermine sulfate]
[1]
  CHIKV replicon % left: 70.1%
[2]
  SFV replication % left (surviving fraction, remaining percentage of SFV replication): 81.8%

## Cc1cccc(C)c1NC(=O)C1CCCCN1C (centres unmarked) [Mepivacaine hydrochloride]
[1]
  CHIKV replicon % left: 62.2%
[2]
  SFV replication % left (surviving fraction, remaining percentage of SFV replication): 74.9%

## CN1CCCCC1CCN1c2ccccc2Sc2ccc([S+](C)[O-])cc21 (centres unmarked) [Mesoridazine besylate]
[1]
  CHIKV replicon % left: 100.5%
[2]
  SFV replication % left (surviving fraction, remaining percentage of SFV replication): 93.8%

## Cc1c(N(C)CS(=O)(=O)[O-])c(=O)n(-c2ccccc2)n1C.[Na+] [Metamizol sodium]
[1]
  CHIKV replicon % left: 105.1%
[2]
  SFV replication % left (surviving fraction, remaining percentage of SFV replication): 86.0%

## C[C@H](N)[C@H](O)c1cccc(O)c1.O=C(O)C(O)C(O)C(=O)O [Metaraminol bitartrate salt]
[1]
  CHIKV replicon % left: 69.1%
[2]
  SFV replication % left (surviving fraction, remaining percentage of SFV replication): 96.5%

## COc1ccc(OC)c(C(O)C(C)N)c1 (centres unmarked) [Methoxamine hydrochloride]
[1]
  CHIKV replicon % left: 48.2%
[2]
  SFV replication % left (surviving fraction, remaining percentage of SFV replication): 98.4%

## COC(=O)c1cc(O)c(O)c(O)c1 [Methyl gallate]
[1]
  CHIKV replicon % left: 100.7%
[2]
  SFV replication % left (surviving fraction, remaining percentage of SFV replication): 67.8%

## COC(=O)c1ccc(O)cc1 [Methyl p-hydroxybenzoate]
[1]
  CHIKV replicon % left: 100.4%
[2]
  SFV replication % left (surviving fraction, remaining percentage of SFV replication): 69.3%

## C[N+]1(C)[C@@H]2CC[C@H]1C[C@@H](OC(=O)C(CO)c1ccccc1)C2 (some centres unmarked) [Methylatropine bromide]
[1]
  CHIKV replicon % left: 54.9%
[2]
  SFV replication % left (surviving fraction, remaining percentage of SFV replication): 70.9%

## Cc1cc(=O)oc2cc(O)ccc12 [Methylumbelliferone]
[1]
  CHIKV replicon % left: 21.1%
[2]
  SFV replication % left (surviving fraction, remaining percentage of SFV replication): 12.0%

## CC(=O)Oc1c(C)cc(OCC(O)CNC(C)C)c(C)c1C (centres unmarked) [Metipranolol]
[1]
  CHIKV replicon % left: 100.5%
[2]
  SFV replication % left (surviving fraction, remaining percentage of SFV replication): 46.2%

## COCCc1ccc(OCC(O)CNC(C)C)cc1 (centres unmarked) [Metoprolol tartrate]
[1]
  CHIKV replicon % left: 78.2%
[2]
  SFV replication % left (surviving fraction, remaining percentage of SFV replication): 65.7%

## Cc1ncc([N+](=O)[O-])n1CCO [Metronidazole]
[1]
  CHIKV replicon % left: 89.2%
[2]
  SFV replication % left (surviving fraction, remaining percentage of SFV replication): 69.2%

## O.O.O=c1c(O)c(-c2ccc(O)cc2O)oc2cc(O)cc(O)c12 [Morin dihydrate]
[1]
  CHIKV replicon % left: 102.6%
[2]
  SFV replication % left (surviving fraction, remaining percentage of SFV replication): 82.9%

## O=c1c(O)c(-c2cc(O)c(O)c(O)c2)oc2cc(O)cc(O)c12 [Myricetin]
[1]
  CHIKV replicon % left: 49.1%
[2]
  SFV replication % left (surviving fraction, remaining percentage of SFV replication): 2.0%

## CC(=O)Nc1ccc(S(N)(=O)=O)cc1 [N-Acetylsulfanilamide]
[1]
  CHIKV replicon % left: 104.1%
[2]
  SFV replication % left (surviving fraction, remaining percentage of SFV replication): 63.2%
